Source: ChEMBL document CHEMBL1138437, “Synthesis and evaluation of novel neamine derivatives effectively targeting to RNA” (Bioorg Med Chem Lett, 2009)
Converted amounts (≈) assume the structure as drawn.

Tests used:
[1] = tested on: Pseudomonas aeruginosa; test: Antibacterial activity against Pseudomonas aeruginosa ATCC 27853 after 18 hrs; type: functional; details: ATCC 27853, 18 h
[2] = tested on: Staphylococcus aureus; test: Antibacterial activity against Staphylococcus aureus ATCC 29213 after 18 hrs; type: functional; details: ATCC 29213, 18 h
[3] = molecular target: Nucleic Acid; test: Binding affinity to biotinylated HIV1 trans-activation response element RNA by surface plasmon resonance analysis; type: nucleic-acid assay, Human immunodeficiency virus 1
[4] = tested on: Escherichia coli; test: Antibacterial activity against Escherichia coli ATCC 25922 after 18 hrs; type: functional; details: ATCC 25922, 18 h
[5] = molecular target: Nucleic Acid; test: Binding affinity to A site of biotinylated 16S rRNA (unknown origin) by surface plasmon resonance analysis; type: nucleic-acid assay

SMILES	MIC [1] [µM]	MIC [2] [µM]	Kd [3] [µM]	MIC [4] [µM]	Kd [5] [µM]
NCCN[C@H]1[C@@H](O)[C@H](N)C[C@H](N)[C@@H]1O[C@H]1O[C@H](CN)[C@@H](O)[C@H](O)[C@H]1N	50 (≈ 18.2 µg/mL)	> 100	14	100 (≈ 36.4 µg/mL)	7
N=C(N)NCCC[C@H](N)C(=O)NCCN[C@H]1[C@@H](O)[C@H](N)C[C@H](N)[C@@H]1O[C@H]1O[C@H](CN)[C@@H](O)[C@H](O)[C@H]1N	> 100	> 100	3	100 (≈ 52.1 µg/mL)	2
NCCCC[C@H](N)C(=O)NCCN[C@H]1[C@@H](O)[C@H](N)C[C@H](N)[C@@H]1O[C@H]1O[C@H](CN)[C@@H](O)[C@H](O)[C@H]1N	> 100	25 (≈ 12.3 µg/mL)	2	50 (≈ 24.6 µg/mL)	1
NC[C@H]1O[C@H](O[C@H]2[C@H](O)[C@@H](O)[C@H](N)C[C@@H]2N)[C@H](N)[C@@H](O)[C@@H]1O [NEAMINE]	> 100	50 (≈ 16.1 µg/mL)	24	50 (≈ 16.1 µg/mL)	19
